Data reported in patent publication US10816552B2 (The Governing Council of the University of Toronto, priority 2014, dated 2020).

Key:
[1] = 1H NMR stability in d-DMSO under dry ambient atmosphere, 24 h; format: physicochemical; conditions: for degradation over 24 hours (1H NMR): 24 hr incubation
Method: FIGS. 2A-C show the results of ^1H NMR stability experiments for exemplary compounds 1-11. (A) Compounds 1, 2 and 7. (B) Compounds 3, 4, 5 and 6. (C) Compounds 8, 9, 10 and 11. The organotellurium compounds (˜150 μM) were dissolved in d-DMSO with 1,3,5-trioxane, the secondary internal standard. The compounds were kept in clear glass 20 mL vials. The vials were kept in a moisture free environment for 24 hours with continuous supply of ambient atmosphere dried using a series of bubblers containing phosphoric acid, potassium hydroxide and calcium sulfate. Aliquots were analyzed by ^1H NMR and the organotellurium signals and the d5-H-DMSO peaks were integrated. The ratio between the DMSO and the organotellurium protons at time 0 were taken and normalized to generate a degradation plot. Experimental error was calculated by generating triplicate integration data from each individual preliminary NMR data. This error takes into consideration of integration bias and instrument fluctuations.
The relative chemical stability of the methyl telluroethers (1-4) were quantified using ^1H NMR by integration of the CH3—Te signals with respect to a residual DMSO-d5 internal standard. Samples were prepared in a solution of DMSO-d6 and placed under a slow continuous stream of dry ambient atmosphere in a clear glass desiccator. This setup allowed the compound's stability to be monitored without interference from atmospheric water (FIG. 2).

Jurkat cells = assay: Metabolic toxicity assay (WST-1) in Jurkat cells; format: cell-based; conditions: for LD50 / LD50 (metabolic toxicity): Jurkat cells, 24 hour incubation, WST-1
Method: FIGS. 7A, B and C show a) and b) the cell proliferation rate of HCT116 cells as a function of time in the presence of various concentrations of the exemplary compound, Telox-2 (confluency analysis); and c) the metabolic toxicity of the exemplary compound, Telox-2, in Jurkat cells as measured by reduction of WST-1. Cells were incubated with Telox-2 for 24 hours prior to a 30 minute exposure to WST-1.
A 96 well clear fluorometer plate was loaded with 200 μL of Jurkat cells at a culture density of 1×10^6 cells per mL. To each well was added an appropriate amount of a stock solution of Telox/Telox2 in sterile DMSO to reach a desired concentration of Telox/Telox2 (1-1000 micromole). The concentration of DMSO was 1% in all wells. Cells were allowed to incubate for 24 h at 37° C. under normal atmosphere, after which 20 μL of a commercially available solution of WST-1 in PBS (Roche Diagnostics, product #05015944001) was added to each well (gentle pipetting evenly distributed the reagent throughout the well). Cells were allowed to incubate for a further 0.5 h at 37° C. under normal atmosphere, followed by subsequent measurement of the absorbance of each well at 450 nm using a TECAN Safire 2 plate reader. Data was background corrected vs. wells that contained cell growth media (without cells), an appropriate concentration of Telox2, a final concentration of DMSO=1%, and WST-1. Background correction wells were incubated in the same manner as described for cell-positive wells.
To investigate the organotellurium compounds of study as potential probe moieties for MC, the metabolic toxicity of the compounds was evaluated. Organotellurium compounds are often described as toxic, with aryl telluroethers showing cellular toxicity below 100 μM across a range of cell lines under different assay conditions.^9-11,38,39 The toxicity of compounds 8-11 was investigated in a commonly used Jurkat cell line after a 24 hour incubation using the metabolic probe WST-1 (Roche Diagnostics, Laval, Quebec) as per manufacturer's instructions. As compounds 8, 9 and 10 are expected to show degradation over the time frame of the toxicity assay, based on the NMR stability studies, these experiments show the relative toxicity of the compounds and their resulting degradation products (Table 2). […] The LD50 values of the exemplary organotellurium compounds of the present application provide promise for their use as activity based MC probes since the general MC experiment can be achieved at concentrations of ˜100 μM.^5

HCT116 cells = assay: Mass cytometry hypoxia labelling (130Te signal); format: cell-based
From the text: FIGS. 4A-E show a schematic representation and density maps and plots. FIG. 4A is a schematic representation of Telox/Telox2 cell labelling for analysis via mass cytometry on a second-generation CyTOF instrument. FIG. 4b) is a density map of signal event length vs. ^130Te signal (arbitrary units). FIG. 4c) is a density plot output from the top-right gate in b) of ^193Ir signal (arbitrary units) vs. ^103Rh signal (arbitrary units). More than 93% of detected events fall in the square gate. FIG. 4d) is a density plot output from the bottom-left gate in b) of ^193Ir signal (arbitrary units) vs. ^103Rh signal (arbitrary units). More than 89% of detected events fall in the square gate. FIG. 4e) is a population histograms of cell ^130Te content (arbitrary units). Oxygen concentrations are listed as numerical percentages, P=Pimonidazole (100 μM). Blue and red histograms are Pimonidazole-negative controls. Orange and green histograms are Pimonidazole- positive competition experiments. Note: warmer colors in density plots indicate higher cell population density.
FIGS. 8A and B show a) the absolute ^130Te signal as a function of concentration as determined by mass cytometry analysis of HCT116 cells incubated with the exemplary compound, Telox-2, for 3 hours in either near-anoxic (˜0% O2), hypoxic (˜1% O2) or normoxic (21% O2) atmosphere; and b) the signal-to-noise (fold-change) representation of the data presented in part a.
FIGS. 9A-D show a) Absolute ^130Te signal as a function of time as determined by mass cytometry analysis of HCT116 cells incubated with 10 μM of the exemplary compound,Telox-2 (constant exposure), in either near-anoxic (˜0% O2), hypoxic (˜1% O2) or normoxic (21% O2) atmosphere; b) the signal-to-noise (fold-change) representation of the data presented in part a; and c) the absolute ^130Te signal as a function of time as determined by mass cytometry analysis of HCT116 cells incubated with 10 μM Telox-2 for 3 hours followed by replacement of Telox-2-containing media with fresh media in either near-anoxic (˜0% O2), hypoxic (˜1% O2) or normoxic (21% O2) atmosphere; and d) the signal-to-noise (fold-change) representation of the data presented in part c.
HCT116 (500,000) cells were seeded in 60 mm plastic petri dishes (Corning Inc., NY) and incubated for 24 h at 37° C., 21% O2/5% CO2. The cells were transferred to hypoxia chambers (H35/H85 hypoxia workstation, Don Whitley Scientific) maintained at 1%/0.2% or <0.02% O2 for 3 h. Hypoxia experiments (<0.02% O2) were performed by seeding the cells in 60 mm glass plates (Corning Inc., NY).
HCT 116 cells (see sections i and ii) were incubated in media containing Telox or Telox2 (100 μM, added as a neat solution in sterile DMSO; final [DMSO]=0.1%) for 3 hours under atmosphere containing an appropriate concentration of O2. Following incubation, the media was removed, cells were washed with sterile PBS, and then separated from the incubation plate via trypsinization (37° C., 10 min) and gentle scraping. The cell suspension was pelleted and resuspended in PBS containing β-ME (1.0 mL, 100 mM). Cells were pelleted, resuspended in PBS (900 μL, no β-ME), and fixed with formaldehyde (100 μL, 37% solution) for 25 minutes. Following fixation, cells were pelleted, resuspended in PBS containing β-ME (1.0 mL, 100 mM), and pelleted once again. Cells were then resuspended in PBS ([…], no β-ME) and incubated with either the Ir-containing nucleic acid intercalator (hypoxic cells) or the Rh containing nucleic acid intercalator (normoxic cells) (10 μL, 100 μM solution in sterile PBS) for 20 minutes. Cells were then pelleted and resuspended in PBS (1.0 mL, no β-ME) twice. Cell pellets were then resuspended in PBS containing ^151/153EU beads (1/10 dilution of CyTOF® calibration beads, DVS Sciences, 1.0-2.5 mL depending on pellet size). The two cells samples were then combined (250 μL of each) and 250 μL of the resultant sample was injected onto a second-generation CyTOF® instrument for MC analysis. […]

[2] = Stability of the Telox telluroether (summary statement); format: physicochemical
Solubility observations = format: physicochemical
[3] = NMR degradation in 50/50 d-DMSO/PBS buffer, air and ambient light; format: physicochemical; conditions: air, ambient lighting, room temperature
From the text: The ^19F NMR of compound 10 and ^1H NMR of compound 11 were taken at shown time points. Compound 10 used trifluoroacetic acid as the internal standard and compound 11 used d5-DMSO.
To further validate these compounds as potential MC mass tags, the degradation was also studied in a buffered aqueous solution by dissolving the compounds in a 50/50 solution of d-DMSO/PBS buffer. The compounds were kept in an environment exposed to air and ambient lighting at room temperature. ^19F NMR was used to study compound 10 using a trifluoroacetic acid internal standard while ^1H NMR was used to study the degradation compound 11 using the d5-DMSO internal standard. […] However, under the same conditions the tellurophene 11 was stable.

COC(=O)CCC[Te]C [Compound 4, methyl 4-methyltellanyl-butanoate]
degradation over 24 hours (1H NMR) [1]: approximately 15%

C[Te]CCCC(=O)NCc1ccccc1 [Compound 9, N-benzyl-4-(methyltellanyl)butanamide]
LD50 (Jurkat cells): 180 ± 60 µM

COC(=O)CC[Te]C [Compound 3, methyl 3-methyltellanyl-propionate]
degradation over 24 hours (1H NMR) [1]: ~85%

C[Te]CCCOC(=O)NCCNC(=O)Cn1ccnc1[N+](=O)[O-] [Telox]
metabolic LD50, in words (Jurkat cells; Telox, summary statement): close to the required assay concentration | detected events in the square gate, top-right (130Te) gate, 193Ir vs 103Rh (HCT116 cells; FIG. 4c): More than 93% | detected events in the square gate, bottom-left (130Te) gate, 193Ir vs 103Rh (HCT116 cells; FIG. 4d): More than 89% | stability of telluroether functionality, in words [2]: moderate stability

COC(=O)CCC[Te]C(F)(F)F [Compound 5, methyl 4-((trifluoromethyl)tellanyl)butanoate]
degradation over 24 hr incubation (1H NMR), in words [1]: no degradation was observed

C[Te]CCCOC(=O)NCc1ccccc1 [Compound 8]
LD50 (Jurkat cells): 610 ± 290 µM | LD50 (metabolic toxicity) (Jurkat cells): 610 µM | solubility, in words (Solubility observations): lack of solubility

OCCc1ccc[te]1 [Compound 7, 2-(tellurophen-2-yl)ethan-ol]
degradation over 24 hr incubation (1H NMR), in words [1]: degraded insignificantly

O=C(CCC[Te]C(F)(F)F)NCc1ccccc1 [Compound 10, N-benzyl-4-((trifluoromethyl)tellanyl)butamide]
degradation over 24 hr incubation (1H NMR), in words [1]: stable | degradation after 24 hours in d-DMSO/PBS ([3]; 19F NMR): 60% | LD50 (Jurkat cells): 130 ± 20 µM

O=C(O)CCc1ccc[te]1 [Compound 6]
degradation over 24 hr incubation (1H NMR), in words [1]: degraded insignificantly

C[Te]CCCO [Compound 2, 3-methyltellanyl-1-propanol]
degradation over 24 hours (1H NMR) [1]: approximately 75%

O=C(CCc1ccc[te]1)NCc1ccccc1 [Compound 11, N-benzyl-3-(tellurophen-2-yl)propanamide]
degradation over 24 hr incubation (1H NMR), in words [1]: stable | stability in d-DMSO/PBS, in words ([3]; 1H NMR, 24 hours): stable | LD50 (Jurkat cells): 280 ± 30 µM | LD50 (metabolic toxicity) (Jurkat cells): 280 µM
